Laboratory results taken from ChEMBL document CHEMBL1201862, “PubChem BioAssay data set” (2004).
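Where inhibition never reached the appropriate level, the endpoint shown equals the highest concentration tested. Otherwise, values were interpolated linearly from a five-concentration, 48-hour dose response in 96-well plates. Here, GI50 denotes the concentration required for 50% inhibition of growth.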 Calls of active or inactive are those of the source. Rule as the data show it: active = GI50 up to about 1.1 µM and inactive = higher.

Key:
Experiment in all cases: growth of human tumour cells (NCI), 48 h
A549 = system: A549
CCRF-CEM = system: CCRF-CEM
HCC 2998 = system: HCC 2998
HCT-116 = system: HCT-116
HCT-15 = system: HCT-15
HL-60 = system: HL-60
IGROV-1 = system: IGROV-1
NCI-H460 = system: NCI-H460
NCI-H522 = system: NCI-H522
OVCAR-3 = system: OVCAR-3
RXF 393 = system: RXF 393
SF-268 = system: SF-268
SF-295 = system: SF-295
SK-MEL-28 = system: SK-MEL-28
SNB-19 = system: SNB-19
SW-620 = system: SW-620
U-251 = system: U-251
UACC-62 = system: UACC-62
UO-31 = system: UO-31
SF-539 = system: SF-539

SMILES | GI50 (A549) | GI50 (CCRF-CEM) | GI50 (HCC 2998) | GI50 (HCT-116) | GI50 (HCT-15) [µM] | GI50 (HL-60) | GI50 (IGROV-1) | GI50 (NCI-H460) | GI50 (NCI-H522) | GI50 (OVCAR-3) | GI50 (RXF 393) | GI50 (SF-268) | GI50 (SF-295) | GI50 (SK-MEL-28) | GI50 (SNB-19) | GI50 (SW-620) | GI50 (U-251) | GI50 (UACC-62) | GI50 (UO-31) | GI50 (SF-539)
COc1cc(/C=C/C2=C(C#N)C(=O)OC2(C)C)ccc1O | > 100 µM (inactive) | 13.3 µM (inactive) | 71.9 µM (inactive) | 37.9 µM (inactive) | 28 | 22.4 µM (inactive) | > 100 µM (inactive) | 38.9 µM (inactive) | 16.7 µM (inactive) | > 100 µM (inactive) | 36.9 µM (inactive) | 46.6 µM (inactive) | 46.1 µM (inactive) | > 100 µM (inactive) | > 100 µM (inactive) | 35.3 µM (inactive) | 17.4 µM (inactive) | > 100 µM (inactive) | 44.9 µM (inactive) | –
COC(=O)C1=C(O)C(C(=O)OC)[C@]2(O)[C@@H](C(=O)OC)[C@H]1C[C@@H](c1ccccc1)[C@@H]2C(=O)OC (stereo partly specified) | – | 5.42 µM (inactive) | 14.2 µM (inactive) | 6.98 µM (inactive) | 13.1 | 19.6 µM (inactive) | – | 14 µM (inactive) | 6.71 µM (inactive) | 13.8 µM (inactive) | 5.08 µM (inactive) | 1.96 µM (inactive) | – | 20.9 µM (inactive) | 24.3 µM (inactive) | – | 16.1 µM (inactive) | 11.9 µM (inactive) | 12.2 µM (inactive) | 12.6 µM (inactive)
CC(=O)N1C(Nc2cnc3ccccc3c2)CCN1c1ccccc1 (stereo unspecified) | > 10 µM (inactive) | > 10 µM (inactive) | > 10 µM (inactive) | > 10 µM (inactive) | > 10 | 6.37 µM (inactive) | > 10 µM (inactive) | > 10 µM (inactive) | > 10 µM (inactive) | > 10 µM (inactive) | > 10 µM (inactive) | > 10 µM (inactive) | > 10 µM (inactive) | > 10 µM (inactive) | > 10 µM (inactive) | 4.78 µM (inactive) | – | – | > 10 µM (inactive) | > 10 µM (inactive)
NC(=O)C1(c2ccccc2)Nc2ccccc2S1 (stereo unspecified) | > 100 µM (inactive) | > 100 µM (inactive) | > 100 µM (inactive) | > 100 µM (inactive) | > 100 | > 100 µM (inactive) | – | > 100 µM (inactive) | > 100 µM (inactive) | > 100 µM (inactive) | > 100 µM (inactive) | > 100 µM (inactive) | – | > 100 µM (inactive) | > 100 µM (inactive) | > 100 µM (inactive) | > 100 µM (inactive) | > 100 µM (inactive) | > 100 µM (inactive) | > 100 µM (inactive)
